Laboratory results reported in article PMC6078708 (Neuropharmacology, 2018).
Read-outs that look alike come from different tables or passages of the source. Values belong to the compound of their own block, whether it stands above or below them.

Experiments:
[1] = molecular target: α7/5-HT3AR chimera (extracellular domain of human α7 nAChR fused to transmembrane and C-terminal domain of mouse 5-HT3AR) (UniProt P23979+P36544, M226I/T225I); details: for effect on response evoked by maximal agonist concentration: compound 100 μM, 3 mM ACh
Experimental: (§1) Site-directed mutagenesis was performed using the QuikChange mutagenesis kit (Agilent Technologies) and verified by nucleotide sequencing (Source Bioscience).
(§2) Heterologous expression was achieved by cytoplasmic injection of in vitro transcribed cRNA. Prior to in vitro synthesis of cRNA plasmid cDNA was linearized by restriction enzyme digestion and purified with QIAQuik PCR purification kit (Qiagen). In vitro synthesis of cRNA was performed using mMessage mMachine SP6 and T7 transcription kits (ThermoFisher Scientific). Oocytes were injected with approximately 9 ng cRNA using a Drummond variable volume microinjector. […] Experiments were performed on oocytes after 3–5 days of incubation. […] Application of compounds was controlled by LabChart software (AD Instruments) using a BPS-8 solenoid valve solution exchange system (ALA Scientific Inc). Allosteric modulators were pre-applied for 30 s before co-application with agonist.
(§3) Data are presented as means ± SEM of at least three independent experiments, that were conducted on separate oocytes. For multiple comparisons, statistical significance was determined with an unpaired one-way analysis of variance (ANOVA). Post-hoc analysis was performed with a Tukey multiple comparison test. For individual comparisons, statistical significance was determined using unpaired t-tests.

[2] = molecular target: T1, mouse 5-HT3AR (Mus musculus, UniProt P23979); details: for response evoked by maximal agonist concentration in presence of compound: compound 100 μM, 30 μM 5-HT
T1 sequence (P23979 24-489): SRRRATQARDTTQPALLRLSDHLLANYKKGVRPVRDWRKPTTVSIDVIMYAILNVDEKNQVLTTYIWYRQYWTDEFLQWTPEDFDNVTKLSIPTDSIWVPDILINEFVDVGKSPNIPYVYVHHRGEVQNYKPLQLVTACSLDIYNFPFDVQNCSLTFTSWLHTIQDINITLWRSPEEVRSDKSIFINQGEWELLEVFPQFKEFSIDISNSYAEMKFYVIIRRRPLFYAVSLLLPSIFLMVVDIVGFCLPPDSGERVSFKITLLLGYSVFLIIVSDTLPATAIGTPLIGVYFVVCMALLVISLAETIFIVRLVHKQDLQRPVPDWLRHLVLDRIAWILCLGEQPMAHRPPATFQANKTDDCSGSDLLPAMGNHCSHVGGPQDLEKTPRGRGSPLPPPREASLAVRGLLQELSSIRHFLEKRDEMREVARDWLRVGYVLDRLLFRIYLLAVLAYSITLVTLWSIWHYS
Experimental: as §1, §2, §3

[3] = molecular target: T2, α7 nAChR L247A (Homo sapiens, UniProt P36544, L247A/L270A); experiment: Two-electrode voltage-clamp recording of mutated α7 nAChR (L247A) in Xenopus oocytes; format: cell-based
T2 construct: expressed in transfected cells; host or cells: Xenopus laevis oocytes, injected with in vitro transcribed cRNA
Experimental: as §1, §2, §3

[4] = molecular target: T3, α7 nAChR M260L (Homo sapiens, UniProt P36544, M283L); experiment: Two-electrode voltage-clamp recording of mutated α7 nAChR (M260L) in Xenopus oocytes; format: cell-based; details: for activity at 100 µM: read-out: normalised response to EC50 ACh in presence of compound
T3 construct: expressed in transfected cells; host or cells: Xenopus laevis oocytes, injected with in vitro transcribed cRNA
Experimental: as §1, §2, §3

[5] = molecular target: T4, human α7 nAChR (Homo sapiens, UniProt P36544); experiment: Two-electrode voltage-clamp recording of wild-type human α7 nAChR expressed in Xenopus oocytes; format: cell-based; details: for nature of antagonism against a range of ACh concentrations / response evoked by maximal agonist concentration in presence of compound: compound 100 μM; for response evoked by maximal agonist concentration in presence of compound: 3 mM ACh; for response to an EC50 concentration of ACh, % of the control response: compound 1 mM, ACh 100 μM; for effect when applied alone: no ACh; for activity at 100 µM: read-out: normalised response to EC50 ACh in presence of compound
T4 construct: expressed in transfected cells; host or cells: Xenopus laevis oocytes, injected with in vitro transcribed cRNA
Experimental: as §2, with “Allosteric modulators were pre-applied for 30 s before co-application with agonist.” left out
as §3

[6] = molecular target: T5, α7 nAChR S222M (Homo sapiens, UniProt P36544, S245M); experiment: Two-electrode voltage-clamp recording of mutated α7 nAChR (S222M) in Xenopus oocytes; format: cell-based
T5 construct: expressed in transfected cells; host or cells: Xenopus laevis oocytes, injected with in vitro transcribed cRNA
Experimental: as §1, §2, §3

[7] = molecular target: α7 nAChR S248A (Homo sapiens, UniProt P36544, S271A); experiment: cell-based
Experimental: as §1, §2, §3

[8] = molecular target: α7 nAChR T288A (Homo sapiens, UniProt P36544, T311A); experiment: cell-based
Experimental: as §1, §2, §3

[9] = read-out: normalised response to EC50 ACh in presence of compound
[10] = co-application only, no pre-application
[11] = furosemide 1 mM, EC50 agonist (100 μM ACh)
[12] = furosemide 1 mM, maximal agonist (3 mM ACh)
[13] = furosemide 1 mM, EC50 ACh (100 μM)

α7/5-HT3AR chimera (extracellular domain of human α7 nAChR fused to transmembrane and C-terminal domain of mouse 5-HT3AR), sequence (P36544+P23979 fused P36544:T225I/P36544:M226I): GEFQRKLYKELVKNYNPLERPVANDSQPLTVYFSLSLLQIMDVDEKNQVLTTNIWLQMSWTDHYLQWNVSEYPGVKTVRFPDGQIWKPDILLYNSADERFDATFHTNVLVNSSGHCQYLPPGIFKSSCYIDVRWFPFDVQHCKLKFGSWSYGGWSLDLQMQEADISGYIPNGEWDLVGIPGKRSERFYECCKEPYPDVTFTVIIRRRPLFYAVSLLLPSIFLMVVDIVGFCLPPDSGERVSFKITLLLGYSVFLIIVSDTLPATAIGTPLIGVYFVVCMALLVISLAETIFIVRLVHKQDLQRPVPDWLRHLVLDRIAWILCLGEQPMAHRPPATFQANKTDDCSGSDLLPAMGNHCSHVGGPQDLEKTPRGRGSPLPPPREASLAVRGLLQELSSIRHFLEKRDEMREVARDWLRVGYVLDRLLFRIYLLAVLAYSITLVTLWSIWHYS
T3 sequence (P36544 23-502 M283L): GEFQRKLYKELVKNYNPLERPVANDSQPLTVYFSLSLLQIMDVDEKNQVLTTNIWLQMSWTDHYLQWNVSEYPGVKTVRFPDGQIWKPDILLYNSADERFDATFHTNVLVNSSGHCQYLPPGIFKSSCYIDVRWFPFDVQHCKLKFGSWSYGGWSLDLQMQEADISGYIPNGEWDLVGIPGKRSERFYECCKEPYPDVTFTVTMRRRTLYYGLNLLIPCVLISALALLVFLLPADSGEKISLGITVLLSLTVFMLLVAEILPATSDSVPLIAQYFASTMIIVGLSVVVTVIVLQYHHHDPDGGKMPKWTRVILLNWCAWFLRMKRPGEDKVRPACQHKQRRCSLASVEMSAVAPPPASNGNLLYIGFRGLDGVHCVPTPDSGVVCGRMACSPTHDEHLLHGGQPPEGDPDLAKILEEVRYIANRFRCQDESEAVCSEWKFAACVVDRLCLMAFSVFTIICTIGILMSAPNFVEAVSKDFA
T4 sequence (P36544 23-502): as the sequence (P36544 23-502 M283L) above, with L261M counted along it
T2 sequence (P36544 23-502 L247A/L270A): as the sequence (P36544 23-502 M283L) above, with L225A, L248A, L261M counted along it
α7 nAChR S248A, sequence (P36544 23-502 S271A): as the sequence (P36544 23-502 M283L) above, with S249A, L261M counted along it
α7 nAChR T288A, sequence (P36544 23-502 T311A): as the sequence (P36544 23-502 M283L) above, with L261M, T289A counted along it
T5 sequence (P36544 23-502 S245M): as the sequence (P36544 23-502 M283L) above, with S223M, L261M counted along it

Compound: Cc1cc(C)[n+](CCc2ccc(S(N)(=O)=O)cc2)c(C)c1 [DB04763, 1-N-(4-sulfamoylphenyl-ethyl)-2,4,6-tri methyl p yr id i ni u m]
effect on response evoked by maximal agonist concentration [1]: not significantly different to their effects on 5-HT3ARs
response evoked by maximal agonist concentration in presence of compound [2]: 92.1 ± 1.7%
activity at 100 µM [3, 9]: 52.4 ± 0.8%
activity at 100 µM [4]: 30.1 ± 2.4%
type of allosteric modulation [5]: NAMs
antagonism in the absence of pre-application [5, 10]: significant antagonism
nature of antagonism against a range of ACh concentrations [5]: non-surmountable
response evoked by maximal agonist concentration in presence of compound [5]: 20.0 ± 1.3%
response to an EC50 concentration of ACh, % of the control response [5]: 3.4 ± 0.9%
effect when applied alone ([5]; compound alone): None of the three compounds had any significant effect when applied alone
IC50 ([5]; read-out: IC50 for inhibition of agonist-evoked responses): 46.4 ± 2.2 µM
activity at 100 µM [5]: 20.1 ± 3.1%

response evoked by maximal agonist concentration in presence of compound [2]: did not cause significant inhibition
activity at 100 µM [4]: 101 ± 3.1%
IC50 [5]: 1700 ± 300 µM
type of allosteric modulation [5]: NAMs
antagonism in the absence of pre-application [5, 10]: significant antagonism
nature of antagonism against a range of ACh concentrations [5]: non-surmountable
response evoked by maximal agonist concentration in presence of compound [5]: 76.0 ± 4.8%
response to an EC50 concentration of ACh, % of the control response [5]: 60.6 ± 1.2%
activity at 100 µM [5]: 90.6 ± 1.8%
activity at 100 µM [6, 9]: 77.2 ± 3.7%
activity at 100 µM [7, 9]: 99.6 ± 1.6%
activity at 100 µM [8, 9]: 65 ± 1.2%
Compound: CNS(=O)(=O)c1ccc(N/C=C2\C(=O)Nc3ccccc32)cc1 [DB08122, N-methyl-4-{[(2-oxo-1,2-dihydro-3h-indol-3-ylidene)methyl]amino}b en z en esul fon ami de]
effect on response evoked by maximal agonist concentration [1]: not significantly different to their effects on 5-HT3ARs
effect when applied alone ([5]; compound alone): None of the three compounds had any significant effect when applied alone

agonist-evoked response in presence of furosemide [1, 11]: 98.2 ± 3.4%
agonist-evoked response in presence of furosemide (potentiation) [1, 12]: 108 ± 2%
agonist effect when applied alone ([2]; compound alone, no 5-HT): no agonist effect
agonist-evoked response in presence of furosemide ([2]; furosemide 1 mM, EC50 agonist (1 μM 5-HT)): 93.9 ± 3.7%
agonist-evoked response in presence of furosemide (potentiation) ([2]; furosemide 1 mM, maximal agonist (30 μM 5-HT)): 108 ± 2%
ACh-evoked response in presence of furosemide, relative to control response ([3]; furosemide 1 mM, EC50 ACh (10 μM)): 99.9 ± 4.3%
agonist-evoked response in presence of furosemide, of the control response [4, 13]: 63 ± 8%
type of allosteric modulation [5]: type I PAM
potentiation of ACh responses in the absence of pre-application [5, 10]: no significant potentiation
maximum level of potentiation of ACh responses ([5]; furosemide 1 mM): 1.6 ± 0.1 fold
effect when applied alone ([5]; furosemide 1 mM): no effect
agonist-evoked response in presence of furosemide (potentiation) [5, 11]: 136 ± 7%
agonist-evoked response in presence of furosemide (potentiation) [5, 12]: 149 ± 6%
EC50 ([5]; read-out: EC50 for potentiation of agonist-evoked responses): 200 ± 40 µM
potentiation of an EC50 concentration of ACh by furosemide [6, 13]: 244 ± 25%
ACh-evoked response in presence of furosemide, relative to control response [7, 13]: 102 ± 5.6%
ACh-evoked response in presence of furosemide, relative to control response [8, 13]: 99.2 ± 1.2%
Compound: NS(=O)(=O)c1cc(C(=O)O)c(NCc2ccco2)cc1Cl [furosemide, Furosemide]
